Data published in patent publication US12655173B2, “Hybrid amide derivatives of amphotericin B” (priority 2020, dated 2026).
≈ marks a conversion by molar mass, not a printed value.

Experiments:
A. thermomutatus = test: MIC against moulds; assay type: cell-based; details: for MIC A. thermomutatus: 6 isolates, AmB (AmBisome)
Solubility in D5W = details: solubility in D5W
CEA10 (clinical isolate) = test: MIC against azole and echinocandin resistant fungal strains (CLSI); assay type: cell-based, A. funigatus; details: read-out: MIC CEA10
Experimental: This experiment was performed following the standard CLSI protocol.

Structure (SMILES)	MIC (A. thermomutatus; Aspergillus thermomutatus, read-out: MIC A. thermomutatus) [µM]	Fold of Increase w.r.t. AmB (Solubility in D5W)	MIC A. thermomutatus (A. thermomutatus) [µM]	MIC (CEA10 (clinical isolate)) [µM]
C[C@@H]1[C@H](O)[C@@H](C)/C=C/C=C/C=C/C=C/C=C/C=C/C=C/[C@H](OC2O[C@H](C)[C@@H](O)[C@H](N)[C@@H]2O)C[C@@H]2O[C@](O)(C[C@@H](O)C[C@@H](O)[C@H](O)CC[C@@H](O)C[C@@H](O)CC(=O)O[C@H]1C)C[C@H](O)[C@H]2C(=O)O (stereo partly drawn) [AmB, Amphotericin B]	0.6 (≈ 0.554 µg/mL)			
CC1C=CC=CC=CC=CC=CC=CC=CC(OC2OC(C)C(O)C(N)C2O)CC2OC(O)(CC(O)CC(O)C(O)CCC(O)CC(O)CC(=O)OC(C)C(C)C1O)CC(O)C2C(=O)NC(CO)(CO)CO (stereo not drawn) [Compound 2]		15.9	2.1 (≈ 2.16 µg/mL)	
C[C@@H](c1ncncc1F)[C@](O)(Cn1cncn1)c1ccc(F)cc1F [Voriconazole]				1.43 (≈ 0.5 µg/mL)
CC1C=CC=CC=CC=CC=CC=CC=CC(OC2OC(C)C(O)C(N)C2O)CC2OC(O)(CC(O)CC(O)C(O)CCC(O)CC(O)CC(=O)OC(C)C(C)C1O)CC(O)C2C(=O)NC(CO)CO (stereo not drawn) [Compound 1]		>314	1.45 (≈ 1.45 µg/mL)	
